Laboratory results taken from patent US20040161391A1, “Ascorbic acid compounds as bleaching agents” (L'OREAL, priority 2002, published 2004).
“Also recorded” adds a separate entry of the source.

Key:
[1] = test system: melanocytes in co-culture; experiment: Activity on the dendricity of melanocytes (melanocyte/keratinocyte co-culture, NKlbeteb labelling); assay type: cell-based; conditions: 7 days treatment, 100 μg per ml; test concentration: T1 312 μM, T2 327 μM, A 230 μM, B 262 μM
Procedure: The aim of this test is to show the effect of the compounds used according to the invention on the morphological modulation of melanocytes.
The melanocytes are treated immediately on inoculation with the compounds according to the invention for 7 days. The compounds are used at a dose of 100 μg per ml.
The melanocytes are labelled using the antibody NKlbeteb (green coloration), which recognizes melanosomes at any stage of maturation. The nucleus of all the cells, melanocytes and keratinocytes, is stained using propidium iodide (red coloration).
In the absence of the compounds according to the invention, the melanocytes in co-culture are highly dendritic. The pigment is visibly transferred to the neighbouring keratinocytes.

[2] = Cytotoxicity by estimating the incorporation of leucine; assay type: cell-based
Procedure: (§1) The following were determined for each test compound:
the cytotoxicity, by estimating the incorporation of leucine, […]

[3] = test system: melanogenesis; experiment: Activity on melanogenesis (ratio of thiouracil to leucine incorporation); assay type: cell-based; conditions: for IC50: read-out: IC50 (concentration for which a 50% inhibition of melanogenesis is observed); for Inhibitory activity on melanogenesis: relative to 100% of control, test concentration: T1 312 μM, T2 327 μM, A 230 μM, B 262 μM
Procedure: The melanogenesis-modulating effect of the compounds of formula (I) was measured according to the method described in patent application EP-0 993 826 filed by the Applicant, and also in the article by R. Schmidt, P. Krien and M. Regnier, Anal. Biochem., 235(2), 113-18, (1996).
as §1
the inhibitory activity on melanin synthesis, by estimating the ratio of the incorporation of thiouracil to the incorporation of leucine, relative to 100% of the control (the control corresponds to the test performed without test compound),
the IC50 value, which corresponds to the micromolar (μM) concentration for which a 50% inhibition of melanogenesis is observed.

[4] = biological target: T1, tyrosinase (Homo sapiens, UniProt P14679); conditions: J. Soc. Cosmet. Chem., 42, 1991; cited from earlier work
T1 sequence (P14679 19-529): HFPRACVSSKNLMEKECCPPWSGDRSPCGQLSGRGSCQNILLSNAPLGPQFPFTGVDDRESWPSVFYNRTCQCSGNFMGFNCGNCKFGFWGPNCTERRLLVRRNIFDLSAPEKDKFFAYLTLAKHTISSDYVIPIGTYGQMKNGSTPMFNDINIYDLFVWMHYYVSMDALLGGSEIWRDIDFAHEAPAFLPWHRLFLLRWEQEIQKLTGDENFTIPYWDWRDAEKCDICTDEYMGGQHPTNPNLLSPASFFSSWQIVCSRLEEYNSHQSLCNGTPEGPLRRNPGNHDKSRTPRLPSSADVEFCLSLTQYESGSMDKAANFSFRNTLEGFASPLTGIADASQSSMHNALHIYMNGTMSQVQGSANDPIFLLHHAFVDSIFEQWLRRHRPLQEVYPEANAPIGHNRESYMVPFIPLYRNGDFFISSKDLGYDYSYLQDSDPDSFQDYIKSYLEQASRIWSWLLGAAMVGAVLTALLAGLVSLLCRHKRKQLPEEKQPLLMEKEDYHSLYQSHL

[5] = test system: melanocytes; conditions: Pigment. Cell. Res., 13, 2000; cited from earlier work

Molecule | Dendricity [1] | Transfer of pigmentation [1] | Cytotoxicity [2] | IC50 [3] [µM] | IC50 (concentration for which a 50% inhibition of melanogenesis is observed) [3] | Inhibitory activity on melanogenesis [3] | Effect on tyrosinase [4] | Dendricity of the melanocytes [5] | Melanin transfer [5]
COc1cc(/C=C/C(=O)OC2=C(O)C(C3COC(C)(C)O3)OC2=O)ccc1OC(C)=O (centres unmarked) [Compound A, 5-(2,2-dimethyl[1,3]dioxolan-4-yl)-4-hydroxy-2-oxo-2,5-dihydro-3-furanyl 3-[(4-acetoxy-3-methoxy)phenyl]acrylate] | Bipolar | reduced; also recorded: Little | No | 200 | – | – | – | – | –
COc1cc(/C=C/C(=O)OC2=C(O)C(C3COC(C)(C)O3)OC2=O)ccc1O (centres unmarked) [Compound B, 5-(2,2-dimethyl[1,3]dioxolan-4-yl)-4-hydroxy-2-oxo-2,5-dihydro-3-furanyl 3-[(4-hydroxy-3-methoxy)phenyl]acrylate] | Bipolar | reduced; also recorded: Little | No | 500 | – | – | – | – | –
methyl 2,3-bis-acetate of ascorbic acid [Compound T1] | Multipolar | Large | – | – | No effect | No effect | – | – | –
O=C1O[C@H]([C@@H](O)CO)C(O)=C1O [ascorbic acid] | – | – | – | – | – | – | inhibitory effect | – | –
O=C(/C=C/c1ccccc1)OC1=C(O)[C@@H]([C@@H](O)CO)OC1=O [Compound T2, ascorbyl 2-cinnamate] | Multipolar | Large | No | – | No effect | No effect | – | – | –
O=C1O[C@H]([C@@H](O)CO)C([O-])=C1OP(=O)([O-])[O-].O=C1O[C@H]([C@@H](O)CO)C([O-])=C1OP(=O)([O-])[O-].[Mg+2].[Mg+2].[Mg+2] [magnesium ascorbyl phosphate] | – | – | – | – | – | – | – | reduce the dendricity | effect on melanin transfer
